Results reported in PMC7472185 (Viruses, 2020).
pIC50: −log10 of the molar value. Where two headings read alike, the source gives them in different places.

Columns and labels:
[1] = biological target: HBV RT (Hepatitis B virus genotype C subtype adr, UniProt P12933); test: T/P and substrate binding assay (cell-free), poly(rA)/oligo(dT) with DIG-dUTP; details: for inhibition at 10 µM / inhibition at 100 µM: read-out: % Inhibition to HBV RT of cell-free assay; for Inhibitory effect on T/P and substrate binding activity of HBV RT: poly(rA)/oligo(dT)
Sequence of HBV RT (P12933 347-690): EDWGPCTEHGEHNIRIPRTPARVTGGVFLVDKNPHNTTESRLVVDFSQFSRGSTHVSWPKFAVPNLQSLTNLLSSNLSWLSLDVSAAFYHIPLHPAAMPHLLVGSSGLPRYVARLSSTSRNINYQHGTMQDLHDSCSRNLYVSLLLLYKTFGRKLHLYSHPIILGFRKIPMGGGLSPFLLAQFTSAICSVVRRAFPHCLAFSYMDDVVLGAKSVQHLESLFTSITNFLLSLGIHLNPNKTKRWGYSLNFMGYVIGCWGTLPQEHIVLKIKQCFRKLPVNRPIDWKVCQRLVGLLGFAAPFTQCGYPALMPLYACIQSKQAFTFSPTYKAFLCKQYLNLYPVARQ

[2] = system: NTCP-expressing HepG2 (NTCP/G2) cells; test: Cytotoxicity, CellTiter-Glo, NTCP/G2 cells; format: cell-based; details: day 9
[3] = system: HB611 cells; test: Cytotoxicity, CellTiter-Glo, HB611 cells; format: cell-based, human
[4] = system: HBeAg; test: HBeAg ELISA of supernatant, HBV infection system NTCP/G2; format: cell-based, Hepatitis B virus; details: NTCP/G2, day 9
[5] = system: HBV; test: Intracellular core-associated HBV DNA by qPCR, NTCP/G2 infection system; format: cell-based, Hepatitis B virus
[6] = system: HBsAg; test: HBsAg ELISA of supernatant, HB611 cells; format: cell-based, Hepatitis B virus; details: suramin, KB-R7943, compound 3 up to 50, 20, and 25 µM, respectively
[7] = system: HBeAg; test: HBeAg ELISA of supernatant, HB611 cells; format: cell-based, Hepatitis B virus; details: suramin, KB-R7943, compound 3 up to 50, 20, and 25 µM, respectively
[8] = system: HBV; test: Intracellular core-associated HBV DNA by qPCR, HB611 cells; format: cell-based, Hepatitis B virus
[9] = system: HBV; test: microbe, parasite or virus in culture; format: cell-based, Hepatitis B virus; details: HB611 cells, read-out: IC50 for extracellular HBV production
[10] = Cytotoxicity, CellTiter-Glo, NTCP/G2 cells; format: cell-based; details: human, NTCP-expressing HepG2 (NTCP/G2) cells, day 9
[11] = Cytotoxicity, CellTiter-Glo, HB611 cells; format: cell-based, human; details: human; HB611 cells, day 9
[12] = system: HBV cccDNA; test: cccDNA by qPCR (Hirt DNA), NTCP/G2 infection system; format: cell-based, Hepatitis B virus; details: NTCP/G2 cells

Molecule `CC(=O)c1c(O)c(C)c(O)c(Cc2c(O)c3c(c(C(=O)/C=C/c4ccccc4)c2O)OC(C)(C)C=C3)c1O` [Rottlerin] has an inhibition at 10 µM [1] of 35% and an inhibition at 100 µM [1] of 98%.

In the case of `O=C(Nc1cccc(C(=O)Nc2ccc(S(=O)(=O)O)c3cc(S(=O)(=O)O)cc(S(=O)(=O)O)c23)c1)Nc1cccc(C(=O)Nc2ccc(S(=O)(=O)O)c3cc(S(=O)(=O)O)cc(S(=O)(=O)O)c23)c1` [NF023], the “% Inhibition to HBV RT of cell-free assay” value ([1]; 10 µM compound) was 26% and the “% Inhibition to HBV RT of cell-free assay” value ([1]; 100 µM compound) was 96%.

For `N=C(N)SCCc1ccc(OCc2ccc([N+](=O)[O-])cc2)cc1` [KB-R7943], the “Inhibitory effect on T/P and substrate binding activity of HBV RT” value ([1]; 10 µM compound) was “showed the higher inhibitory effects”, the CC50 [2] was 37.4 µM and the CC50 [3] was 41.9 µM. The “HBeAg expression in the culture supernatant” value [4] was “did not change”, the “putative IC50, core-associated HBV DNA” value ([5]; NTCP/G2, day 9) was 7.37 µM and the “HBsAg secretion” value [6] was “no changes”. The “HBeAg secretion” value [7] was “no changes”, the “Core-associated DNA” value ([8]; HB611 cells) was “modest decrease” and the pIC50 [9] was 5.43.

With `Cc1cc2c(C(C)C)c(O)c(O)c(C=O)c2c(O)c1-c1c(C)cc2c(C(C)C)c(O)c(O)c(C=O)c2c1O` [Gossypol] the “Inhibitory effect on T/P and substrate binding activity of HBV RT” value ([1]; 10 µM compound) was “showed the higher inhibitory effects”, the inhibition at 10 µM ([1]; 10 µM compound) was 92% and the inhibition at 100 µM ([1]; 100 µM compound) was 97%.

For `C=CC1=C(C)c2cc3[nH]c(cc4nc(cc5[nH]c(cc1n2)c(C)c5CCC(=O)O)C(CCC(=O)O)=C4C)c(C)c3C=C` [protoporphyrin IX disodium], the “Inhibitory effect on T/P and substrate binding activity of HBV RT” value ([1]; 10 µM compound) was “showed the higher inhibitory effects”.

In the case of `Cc1ccc(C(=O)Nc2ccc(S(=O)(=O)O)c3cc(S(=O)(=O)O)cc(S(=O)(=O)O)c23)cc1NC(=O)c1cccc(NC(=O)Nc2cccc(C(=O)Nc3cc(C(=O)Nc4ccc(S(=O)(=O)O)c5cc(S(=O)(=O)O)cc(S(=O)(=O)O)c45)ccc3C)c2)c1` [Suramin], the “Inhibitory effect on T/P and substrate binding activity of HBV RT” value ([1]; 10 µM compound) was “showed the higher inhibitory effects”, the inhibition at 10 µM ([1]; 10 µM compound) was 69% and the inhibition at 100 µM ([1]; 100 µM compound) was 97%. For the same molecule, the CC50 at 9 days [10] was over 200 µM, the CC50 at 9 days [11] was 168 µM and the “HBeAg expression in the culture supernatant” value [4] was “reduced”. The pIC50 ([5]; Hepatitis B virus, 216 h, read-out: putative IC50, core-associated HBV DNA) was 6.57, the “cccDNA levels” value [12] was “reduced” and the “HBsAg secretion” value [6] was “no changes”. The “HBeAg secretion” value [7] was “no changes”, the pIC50 ([8]; Hepatitis B virus, HB611, read-out: IC50 for core-associated DNA) was 4.58 and the pIC50 ([9]; Hepatitis B virus) was 4.77.

Work on `Nc1c(S(=O)(=O)O)cc(Nc2ccc(Nc3nc(Cl)nc(Nc4cccc(S(=O)(=O)O)c4)n3)c(S(=O)(=O)O)c2)c2c1C(=O)c1ccccc1C2=O` [Reactive blue 2] yielded an inhibition at 10 µM ([1]; 10 µM compound) of 53% and an inhibition at 100 µM ([1]; 100 µM compound) of 100%.
